In experiment [1] the target is T1, Bovine Adrenal Estrogen Sulfotransferase (Bos taurus, UniProt P19217).
T1 construct: from tissue; host or cells: bovine adrenal
T1 sequence (P19217 1-295): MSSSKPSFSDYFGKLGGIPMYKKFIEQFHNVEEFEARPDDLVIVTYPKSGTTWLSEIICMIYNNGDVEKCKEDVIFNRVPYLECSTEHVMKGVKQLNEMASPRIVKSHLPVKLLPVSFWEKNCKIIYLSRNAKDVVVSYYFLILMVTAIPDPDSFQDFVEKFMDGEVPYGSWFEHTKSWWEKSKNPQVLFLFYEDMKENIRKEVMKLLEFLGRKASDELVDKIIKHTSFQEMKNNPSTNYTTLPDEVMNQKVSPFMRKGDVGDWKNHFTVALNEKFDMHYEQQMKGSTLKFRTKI
As to the kind of experiment: Purified bovine adrenal estrogen sulfotransferase inhibition. Particulars: purified bovine adrenal enzyme; inhibitor concentration not given. In kind it is biochemical. As for the experimental part:
(§1) The estrogen sulfotransferase inhibiting activity of compounds within the scope of the invention are determined by inhibition of bovine adrenal or porcine uterine estrogen sulfotransferase. The desired concentration of estrogen sulfates is determined by comparisons after appropriate incubations with and without inhibitors and at various concentrations of inhibitors in the incubation. A detailed description of materials and methods for both bovine adrenal sulfotransferase inhibition and metabolism of estrogen in porcine uterus during implantation is described in U.S. Pat. No. 4,340,602 incorporated herein by reference above. Additionally, U.S. Pat. No. 4,340,602 describes materials and methods for determining estrogen sulfurylation in human endometrial curettings.
*Methods described in: Rozhin, J., et al. J. Biol. Chem. 252, 7214 (1977)

Experiment [2] deals with T2, Porcine Uterine Estrogen Sulfotansferase (Sus scrofa, UniProt A0A286ZW98).
T2 sequence (A0A286ZW98 1-296): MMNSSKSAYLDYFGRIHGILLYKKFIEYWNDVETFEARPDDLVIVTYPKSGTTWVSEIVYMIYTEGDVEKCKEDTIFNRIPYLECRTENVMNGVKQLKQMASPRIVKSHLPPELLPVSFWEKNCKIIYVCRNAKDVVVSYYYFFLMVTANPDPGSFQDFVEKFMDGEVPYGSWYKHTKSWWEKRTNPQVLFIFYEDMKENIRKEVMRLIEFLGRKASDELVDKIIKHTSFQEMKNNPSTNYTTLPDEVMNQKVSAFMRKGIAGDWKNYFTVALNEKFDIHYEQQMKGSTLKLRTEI
Briefly: Inhibition of porcine uterine estrogen sulfotransferase (estrogen sulfates formed). In kind it is biochemical. Particulars: control 1.26 p mole. As for the experimental part:
as §1

A further experiment concerns estrogen sulfurylation. Particulars: Rozhin et al, J. Biol Chem., 1977, 252, 7214; cited from earlier work.
Experiment [3] deals with receptor binding and nuclear migration of physiological levels of 17β-estradiol. Particulars: Rozhin et al 1977; cited from earlier work.

Results on 2 compounds are retold here after US4496555A, “Compounds and compositions for inhibiting estrogen sulfotransferase transferase activity, process and novel intermediates therein” (Wayne State University, priority 1983, dated 1985).

For orientation: % Inhibition means the percentage by which the read-out fell short of the control. Turning to `C[C@]12CC[C@@H]3c4cccc(F)c4CC[C@H]3[C@@H]1CC[C@@H]2O` [4-F-1,3,5(10)estratriene 17β-ol, 4-Fluoroestra-1,3,5-(10)-trien-17β-ol], the “% Inhibition” value in experiment [1] is given as 81%. The “Estrogen Sulfates” value in experiment [2] (10-fold inhibitor) was determined as 1.07 p mole; in experiment [2] (10^2-fold inhibitor), 1.08 p mole; in experiment [2] (10^3 fold inhibitor), 0.67 p mole.

Take `COc1ccc2c(c1[N+](=O)[O-])CC[C@@H]1[C@@H]2CC[C@]2(C)C(=O)CC[C@@H]12` [4-nitroestrone 3-0-methylether]: in the experiment on estrogen sulfurylation, the estrogen sulfurylation entry was “blocks estrogen sulfurylation”. Also, in experiment [3], the “interference with receptor binding and nuclear migration of 17β-estradiol” value was “without interfering with the receptor binding and nuclear migration”.
